PubChem BioAssay (NCI)
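GI50 = concentration required for 50% inhibition of growth. TGI marks complete inhibition of growth.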

Tests used:
Experiment in all cases: NCI-60 cell line screen, 384-well format
[1] = tested on: T-47D breast
[2] = tested on: TK-10 renal
[3] = tested on: RXF 393 renal
[4] = tested on: HCT-15 colon
[5] = tested on: CCRF-CEM leukemia
[6] = tested on: NCI-H322M lung
[7] = tested on: UO-31 renal
[8] = tested on: HL-60(TB) leukemia
[9] = tested on: 786-0 renal
[10] = tested on: SN12C renal
[11] = tested on: BT-549 breast
[12] = tested on: CAKI-1 renal
[13] = tested on: SK-MEL-28 melanoma
[14] = tested on: IGROV1 ovarian
[15] = tested on: SF-539 CNS
[16] = tested on: HT29 colon
[17] = tested on: HOP-92 NSCLC
[18] = tested on: SW-620 colon
[19] = tested on: PC-3 prostate
[20] = tested on: SNB-19 CNS
[21] = tested on: MDA-MB-231 breast
[22] = tested on: MCF7 breast
[23] = tested on: SF-268 CNS
[24] = tested on: ACHN renal
[25] = tested on: HCC-2998 colon
[26] = tested on: SR leukemia
[27] = tested on: U251 glioblastoma
[28] = tested on: KM12 colon
[29] = tested on: MOLT-4 leukemia
[30] = tested on: MDA-MB-435 melanoma
[31] = tested on: OVCAR-4 ovarian
[32] = tested on: NCI-H460 NSCLC
[33] = tested on: OVCAR-5 ovarian
[34] = tested on: K-562 leukemia
[35] = tested on: A498 renal
[36] = tested on: SK-MEL-2 melanoma
[37] = tested on: M14 melanoma
[38] = tested on: COLO 205 colon
[39] = tested on: NCI-H23 lung
[40] = tested on: MDA-MB-468 breast
[41] = tested on: A549 NSCLC
[42] = tested on: HCT-116 colon
[43] = tested on: NCI-H522 lung
[44] = tested on: HOP-62 NSCLC
[45] = tested on: UACC-257 melanoma
[46] = tested on: MALME-3M melanoma
[47] = tested on: NCI/ADR-RES ovarian
[48] = tested on: OVCAR-3 ovarian
[49] = tested on: SK-MEL-5 melanoma
[50] = tested on: LOX IMVI melanoma
[51] = tested on: SK-OV-3 ovarian
[52] = tested on: UACC-62 melanoma
[53] = tested on: NCI-H226 lung
[54] = tested on: OVCAR-8 ovarian
[55] = tested on: RPMI-8226 leukemia
[56] = tested on: DU-145 prostate
[57] = tested on: SF-295 CNS

C=CC(=O)N1CCN(c2nc(OC[C@@H]3CCCN3C)nc3c2CCN(c2cccc4cccc(C)c24)C3)C[C@@H]1CC#N
GI50 [1]: 637 nM
TGI [1]: 2010 nM
GI50 [2]: 505 nM
TGI [2]: 1700 nM
GI50 [3]: 189 nM
TGI [3]: 575 nM
GI50 [4]: 1010 nM
TGI [4]: 2190 nM
GI50 [5]: 133 nM
TGI [5]: 265 nM
GI50 [6]: 1440 nM
TGI [6]: 2760 nM
GI50 [7]: 983 nM
TGI [7]: 2150 nM
GI50 [8]: 181 nM
TGI [8]: 322 nM
GI50 [9]: 705 nM
TGI [9]: 1990 nM
GI50 [10]: 1240 nM
TGI [10]: 2500 nM
GI50 [11]: 265 nM
TGI [11]: 999 nM
GI50 [12]: 422 nM
TGI [12]: 1430 nM
GI50 [13]: 1620 nM
TGI [13]: 2980 nM
GI50 [14]: 1390 nM
TGI [14]: 2700 nM
GI50 [15]: 644 nM
TGI [15]: 1940 nM
GI50 [16]: 1260 nM
TGI [16]: 2540 nM
GI50 [17]: 223 nM
TGI [17]: 687 nM
GI50 [18]: 1310 nM
TGI [18]: 2620 nM
GI50 [19]: 759 nM
TGI [19]: 1980 nM
GI50 [20]: 1570 nM
TGI [20]: 2930 nM
GI50 [21]: 312 nM
TGI [21]: 1270 nM
GI50 [22]: 834 nM
TGI [22]: 2090 nM
GI50 [23]: 495 nM
TGI [23]: 1670 nM
GI50 [24]: 350 nM
TGI [24]: 1600 nM
GI50 [25]: 1230 nM
TGI [25]: 2490 nM
GI50 [26]: 134 nM
TGI [26]: 267 nM
GI50 [27]: 1010 nM
TGI [27]: 2200 nM
GI50 [28]: 1060 nM
TGI [28]: 2260 nM
GI50 [29]: 160 nM
TGI [29]: 299 nM
GI50 [30]: 1220 nM
TGI [30]: 2480 nM
GI50 [31]: 465 nM
TGI [31]: 1690 nM
GI50 [32]: 754 nM
TGI [32]: 2060 nM
GI50 [33]: 1470 nM
TGI [33]: 2800 nM
GI50 [34]: 918 nM
TGI [34]: 2130 nM
GI50 [35]: 485 nM
TGI [35]: 1700 nM
GI50 [36]: 194 nM
TGI [36]: 595 nM
GI50 [37]: 1270 nM
TGI [37]: 2530 nM
GI50 [38]: 1230 nM
TGI [38]: 2490 nM
GI50 [39]: < 10 nM
GI50 [40]: 367 nM
TGI [40]: 1020 nM
GI50 [41]: 1310 nM
TGI [41]: 2610 nM
GI50 [42]: 526 nM
TGI [42]: 1740 nM
GI50 [43]: 343 nM
TGI [43]: 1390 nM
GI50 [44]: < 10 nM
TGI [44]: 1120 nM
GI50 [45]: 833 nM
TGI [45]: 2070 nM
GI50 [46]: 1220 nM
TGI [46]: 2460 nM
GI50 [47]: 1610 nM
TGI [47]: 2970 nM
GI50 [48]: 362 nM
TGI [48]: 1360 nM
GI50 [49]: 1500 nM
TGI [49]: 2840 nM
GI50 [50]: 1590 nM
TGI [50]: 2950 nM
GI50 [51]: 540 nM
TGI [51]: 1860 nM
GI50 [52]: 411 nM
TGI [52]: 1500 nM
GI50 [53]: 1160 nM
TGI [53]: 2390 nM
GI50 [54]: 1050 nM
TGI [54]: 2240 nM
GI50 [55]: 193 nM
TGI [55]: 377 nM
GI50 [56]: 1400 nM
TGI [56]: 2710 nM
GI50 [57]: 1590 nM
TGI [57]: 2940 nM

NC(=O)NO
GI50 [5]: 76300 nM
GI50 [8]: 81900 nM
